# Experimental data taken from patent US20260373266A1, “PROTEIN DEGRADERS AND USES THEREOF” (KYMERA THERAPEUTICS, INC., priority 2022, published 2026).
# Biological target: T1, DCAF1 WD40 domain (residues 1077-1390) (Homo sapiens, UniProt Q9Y4B6)
# T1 construct: DCAF1 WD40 domain (residues 1077-1390)
# Test: DCAF1 binding assay by SPR (Biacore 8K+), DCAF1-3 KD
# Conditions: 25 °C, read-out: DCAF1-3 SPR (KD)
# T1 sequence (Q9Y4B6 1077-1390): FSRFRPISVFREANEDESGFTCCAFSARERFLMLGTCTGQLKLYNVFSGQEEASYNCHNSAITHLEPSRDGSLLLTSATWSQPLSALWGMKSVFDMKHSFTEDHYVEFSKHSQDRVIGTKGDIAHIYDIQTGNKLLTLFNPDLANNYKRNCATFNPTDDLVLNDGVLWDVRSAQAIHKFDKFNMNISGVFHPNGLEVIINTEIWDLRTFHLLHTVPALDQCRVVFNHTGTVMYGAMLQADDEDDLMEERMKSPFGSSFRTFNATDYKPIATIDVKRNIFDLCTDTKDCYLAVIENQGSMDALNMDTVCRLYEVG
row,Compound,Kd [µM]
1,NC(=O)C[C@H](NC(=O)c1cnn(Cc2ccccc2)c1-c1ccccc1F)c1cccc(Cl)c1 [I-140],> 200
2,CC(C(N)=O)[C@H](NC(=O)c1cn[nH]c1-c1ccccc1F)c1cccc(Cl)c1 (stereo partly drawn) [I-141],> 200
3,O=C(C[C@H](NC(=O)c1cn[nH]c1-c1ccccc1F)c1cccc(Cl)c1)NC1CC1 [I-142],> 200
4,Cc1cccc([C@H](CC(N)=O)NC(=O)c2cn[nH]c2-c2ccccc2F)n1 [I-143],> 200
5,O=C(CC1CC[C@@H](Nc2cc(N3CCOCC3)ccn2)CN1c1cccc(F)c1)Nc1cccc(Cl)c1 (stereo partly drawn) [I-144],> 200
6,CN1C[C@H](Nc2cc(N3CCOCC3)ccn2)CCC1CC(=O)Nc1cccc(Cl)c1 (stereo partly drawn) [I-145],> 200
7,C[C@H](C(N)=O)[C@H](NC(=O)c1c[nH]nc1-c1ccccc1F)c1cccc(Cl)c1 [I-147],10 to 100
8,C[C@@H](C(N)=O)[C@H](NC(=O)c1c[nH]nc1-c1ccccc1F)c1cccc(Cl)c1 [I-148],< 10
9,Cc1cccc(F)c1-c1[nH]ncc1C(=O)N[C@@H](CC(N)=O)c1cccc(Cl)c1 [I-149],< 10
10,NC(=O)C[C@H](NC(=O)c1c[nH]nc1-c1c(F)cccc1F)c1cccc(Cl)c1 [I-150],< 10
11,NC(=O)C[C@H](C(=O)Nc1cnn(Cc2ccccc2)c1-c1ccccc1F)c1cccc(Cl)c1 [I-153],> 200
12,NC(=O)C[C@H](NC(=O)c1cnn(Cc2ccncn2)c1-c1ccccc1F)c1cccc(Cl)c1 [I-154],> 200
13,NC(=O)C[C@@]1(NC(=O)c2c[nH]nc2-c2ccccc2F)CCCc2c(Cl)cccc21 [I-155],> 200
14,NC(=O)C[C@H](NC(=O)c1c[nH]nc1-c1ccc[nH]c1=O)c1cccc(Cl)c1 [I-156],> 200
15,Cn1nccc1-c1[nH]ncc1C(=O)N[C@@H](CC(N)=O)c1cccc(Cl)c1 [I-157],10 to 100
16,NC(=O)C[C@H](NC(=O)c1cn[nH]c1-c1cnsc1)c1cccc(Cl)c1 [I-158],10 to 100
17,NC(=O)C[C@H](NC(=O)c1cn[nH]c1N1CCCCC1)c1cccc(Cl)c1 [I-159],> 200
18,NC(=O)C[C@H](NC(=O)c1cn[nH]c1-c1oncc1O)c1cccc(Cl)c1 [I-161],> 200
19,NC(=O)C[C@H](N/C(=N\O)c1cn[nH]c1-c1ccccc1F)c1cccc(Cl)c1 [I-162],> 200
20,O[C@@H]1C[C@@H](Nc2cc(N3CCOCC3)ncn2)CN(c2cccc(F)c2)C1 [I-163],> 200
21,CO[C@@H]1C[C@@H](Nc2cc(N3CCOCC3)ncn2)CN(c2cccc(F)c2)C1 [I-164],> 200
22,NC(=O)C[C@H](NC(=O)c1cnn(CC2CCCCC2)c1-c1ccccc1F)c1cccc(Cl)c1 [I-165],> 200

row,Compound,Kd [µM]
1,NC(=O)C[C@H](NC(=O)c1cnn(CC2CCCC2)c1-c1ccccc1F)c1cccc(Cl)c1 [I-166],> 200
2,NC(=O)C[C@H](NC(=O)c1cnn(Cc2cncs2)c1-c1ccccc1F)c1cccc(Cl)c1 [I-167],> 200
3,NC(=O)C[C@H](NC(=O)c1[nH]nc(Nc2ccncn2)c1-c1ccccc1F)c1cccc(Cl)c1 [I-168],> 200
4,NC(=O)C[C@H](NC(=O)c1[nH]nc(Nc2ccccc2)c1-c1ccccc1F)c1cccc(Cl)c1 [I-169],10 to 100
5,NC(=O)C[C@H](NC(=O)c1cnn(CCc2ccccc2)c1-c1ccccc1F)c1cccc(Cl)c1 [I-170],> 200
6,NC(=O)C[C@H](NC(=O)c1[nH]nc(NC2CCCCC2)c1-c1ccccc1F)c1cccc(Cl)c1 [I-171],> 200
7,Cn1ncc(C(=O)N[C@@H](CC(N)=O)c2cccc(Cl)c2)c1-c1ccccc1F [I-172],> 200
8,NC(=O)C[C@H](NC(=O)c1cnn(C(=O)c2ccccc2)c1-c1ccccc1F)c1cccc(Cl)c1 [I-173],> 200
9,NC(=O)C[C@H](NC(=O)c1cnn(C(=O)c2ccncn2)c1-c1ccccc1F)c1cccc(Cl)c1 [I-174],> 200
10,CC(=O)n1ncc(C(=O)N[C@@H](CC(N)=O)c2cccc(Cl)c2)c1-c1ccccc1F [I-175],> 200
11,C[C@@]1(Nc2cc(N3CCOCC3)ncn2)CCCN(c2cccc(F)c2)C1 [I-176],> 200
12,C[C@@H]1C[C@@H](Nc2cc(N3CCOCC3)ncn2)CN(c2cccc(F)c2)C1 [I-177],> 200
13,NC(=O)C[C@H](NC(=O)c1[nH]nc(CN2CCOCC2)c1-c1ccccc1F)c1cccc(Cl)c1 [I-178],> 200
14,Fc1cccc(NC2CCCN(c3cc(N4CCOCC4)ncn3)C2)c1 (stereo not drawn) [I-179],> 200
15,Fc1cccc([C@H]2CCC[C@@H](Nc3cc(N4CCOCC4)ccn3)C2)c1 [I-180],> 200
16,Fc1cccc([C@H]2CCC[C@@H](Nc3nccc(N4CCOCC4)n3)C2)c1 [I-181],> 200
17,Fc1cccc([C@H]2CCC[C@@H](Nc3cc(N4CCOCC4)ncn3)C2)c1 [I-182],> 200
18,Fc1cccc([C@@H]2CCC[C@@H](Nc3cc(N4CCOCC4)ncn3)C2)c1 [I-183],> 200
19,Fc1cccc([C@@H]2CCC[C@@H](Nc3cc(N4CCOCC4)ccn3)C2)c1 [I-184],> 200
20,Fc1cccc([C@@H]2CCC[C@@H](Nc3nccc(N4CCOCC4)n3)C2)c1 [I-185],> 200
21,NC(=O)C[C@H](NC(=O)c1cn[nH]c1-c1ccccc1F)c1cnsc1 [I-187],> 200
22,Fc1cccc(N2CCC[C@@H]3[C@H]2CCN3c2cc(N3CCOCC3)ccn2)c1 [I-189],10 to 100

row,Compound,Kd [µM]
1,Fc1cccc(N2CCC[C@@H]3[C@H]2CCCN3c2cc(N3CCOCC3)ccn2)c1 [I-190],> 200
2,NC(=O)C[C@@]1(c2cccc(Cl)c2)CN=C(c2c[nH]nc2-c2ccccc2F)N1 [I-191],> 200
3,O=C(N[C@H](c1cccc(Cl)c1)[C@H]1CCNC1=O)c1c[nH]nc1-c1ccccc1F [I-192],> 200
4,O=C(N[C@H](c1cccc(Cl)c1)[C@@H]1CCNC1=O)c1c[nH]nc1-c1ccccc1F [I-193],> 200
5,O=C(N[C@H](c1cccc(Cl)c1)[C@H]1CCCNC1=O)c1c[nH]nc1-c1ccccc1F [I-194],> 200
6,O=C(N[C@H](c1cccc(Cl)c1)[C@@H]1CCCNC1=O)c1c[nH]nc1-c1ccccc1F [I-195],> 200
7,Fc1cccc(N2CCC[C@@H](N3CCc4c(N5CCOCC5)ccnc43)C2)c1 [I-196],< 10
8,Fc1cccc(N2CCC[C@@H](N3CCCc4c(N5CCOCC5)ccnc43)C2)c1 [I-197],> 200
9,Fc1cccc(N2CC[C@@H](Nc3cc(N4CCOCC4)ccn3)C2)c1 [I-198],10 to 100
10,Fc1cccc(N2CC(Nc3cc(N4CCOCC4)ccn3)C2)c1 [I-199],> 200
11,NC(=O)C[C@H](NC(=O)c1n[nH]nc1-c1ccccc1F)c1cccc(Cl)c1 [I-200],> 200
12,NC(=O)C[C@H](NC(=O)c1n[nH]nc1-c1ncccc1F)c1cccc(Cl)c1 [I-201],> 200
13,NC(=O)C[C@H](NC(=O)c1c[nH]nc1-c1ccccn1)c1cccc(Cl)c1 [I-202],> 200
14,NC(=O)[C@H]1CCN(C(=O)c2c[nH]nc2-c2ccccc2F)[C@@H]1c1cccc(Cl)c1 [I-203],> 200
15,NC(=O)[C@@H]1CCN(C(=O)c2c[nH]nc2-c2ccccc2F)[C@@H]1c1cccc(Cl)c1 [I-204],> 200
16,NC(=O)C[C@@]1(NC(=O)c2c[nH]nc2-c2ccccc2F)CCc2c(Cl)cccc21 [I-205],> 200
17,NC(=O)C[C@H](NC(=O)c1c[nH]nc1-c1c(F)cccc1F)c1cccc(Cl)c1 [I-207],> 200
18,Cc1ccccc1-c1[nH]ncc1C(=O)N[C@@H](CC(N)=O)c1cccc(Cl)c1 [I-209],> 200
19,NC(=O)C[C@H](NC(=O)c1c[nH]nc1-c1ccccc1Cl)c1cccc(Cl)c1 [I-210],> 200
20,C[C@@H](C(N)=O)[C@H](NC(=O)c1c[nH]nc1-c1ccccc1F)c1cccc(Cl)c1 [I-211],> 200
21,C[C@H](C(N)=O)[C@H](NC(=O)c1c[nH]nc1-c1ccccc1F)c1cccc(Cl)c1 [I-212],> 200
22,Fc1cccc(N2CCC[C@]3(Cc4cnc(N5CCOCC5)cc4N3)C2)c1 [I-213],> 200

row,Compound,Kd [µM]
1,Fc1cccc(N2CCC[C@]3(CCc4cnc(N5CCOCC5)cc4N3)C2)c1 [I-214],> 200
2,NC(=O)C[C@H](NC(=O)c1cc(=O)[nH]cc1-c1ccccc1F)c1cccc(Cl)c1 [I-215],> 200
3,NC(=O)C[C@H](NC(=O)c1c(-c2ccccc2F)cc[nH]c1=O)c1cccc(Cl)c1 [I-216],> 200
4,Fc1cccc(N2CC[C@@H](Nc3cc(N4CCOCC4)ncn3)C2)c1 [I-217],> 200
5,Fc1cccc(N2CC(Nc3cc(N4CCOCC4)ncn3)C2)c1 [I-218],> 200
6,Fc1cccc(N2CCCC[C@@H](Nc3cc(N4CCOCC4)ncn3)C2)c1 [I-219],> 200
7,NC(=O)C[C@H](NC(=O)c1nc(N)[nH]c1-c1ccccc1F)c1cccc(Cl)c1 [I-220],> 200
8,Fc1cccc(N2CCCC3(C2)CN(c2cc(N4CCOCC4)ccn2)C3)c1 [I-221],> 200
9,CC1(Nc2cc(N3CCOCC3)ccn2)CCCN(c2cccc(F)c2)C1 (stereo not drawn) [I-222],> 200
10,O=C1C[C@@H]([C@H](NC(=O)c2c[nH]nc2-c2ccccc2F)c2cccc(Cl)c2)CN1 [I-223],> 200
11,Fc1cccc(N2CCNC(Cc3cc(N4CCOCC4)ccn3)C2)c1 (stereo not drawn) [I-224],> 200
12,Fc1cccc(N2CCNC(Cc3cc(N4CCOCC4)ncn3)C2)c1 (stereo not drawn) [I-225],> 200
13,Fc1cccc(N2CCC3CCCc4cnc(N5CCOCC5)cc4N[C@H]3C2)c1 (stereo partly drawn) [I-226],> 200
14,Fc1cccc(N2CCC3CCCc4ncc(N5CCOCC5)cc4N[C@H]3C2)c1 (stereo partly drawn) [I-227],> 200
15,Fc1cccc(N2CCC3CCCc4ncc(N5CCOCC5)cc4NC3C2)c1 (stereo not drawn) [I-228],> 200
16,NC(=O)C[C@H](NC(=O)c1c[nH]nc1-c1ccccc1O)c1cccc(Cl)c1 [I-229],> 200
17,Cc1[nH]nc(C(=O)N[C@@H](CC(N)=O)c2cccc(Cl)c2)c1-c1ccccc1F [I-230],> 200
18,O=C(N[C@H](c1cccc(Cl)c1)c1ccon1)c1c[nH]nc1-c1ccccc1F [I-232],> 200
19,O=C(N[C@@H](c1cnoc1)c1cccc(Cl)c1)c1c[nH]nc1-c1ccccc1F [I-233],> 200
20,C[C@H]1CC[C@@H](Nc2cc(N3CCOCC3)ncn2)CN1c1cccc(F)c1 [I-234],> 200
21,NC(=O)C[C@H](NC(=O)c1c[nH]nc1-c1cccc2cc[nH]c12)c1cccc(Cl)c1 [I-235],> 200
